Results as given in paper PMC4585840 (Scientific Reports, 2015).

Legend:
RCasp3 = target: T1, RCasp3 (Homo sapiens, UniProt P42574); experiment: in vitro tubulin cleavage assay with RCasp3; type: biochemical; conditions: 20 nM RCasp3, 10 μM DTT, 10 hours, western blot densitometry; read-out: IC50 on RCasp3-cleaved tubulin
T1 construct: Active Casp6 and Casp3 represented >99% of the purified enzyme; purchased Enzo Lifesciences
T1 sequence (P42574 29-175 limits assumed): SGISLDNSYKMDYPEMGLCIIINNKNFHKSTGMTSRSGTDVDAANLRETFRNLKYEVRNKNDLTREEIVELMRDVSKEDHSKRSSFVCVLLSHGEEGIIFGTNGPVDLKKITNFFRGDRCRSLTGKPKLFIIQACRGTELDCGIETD
T1 sequence (P42574 176-277 limits assumed): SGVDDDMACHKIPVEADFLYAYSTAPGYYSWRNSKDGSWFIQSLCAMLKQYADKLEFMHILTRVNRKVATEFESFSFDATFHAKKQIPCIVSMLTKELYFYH

RCasp6 [1] = target: T2, RCasp6 (Homo sapiens, UniProt P55212); experiment: in vitro fluorogenic Casp6 activity assay (Ac-VEID-AFC); type: biochemical; conditions: 10 μM DTT; Fig. 1c
T2 construct: The zymogen is cleaved at three distinct sites to remove the prodomain and linker regions in order to obtain an active enzyme; His tag (C); made in house; host or cells: E. coli BL21 (DE3)pLysS
T2 sequence (P55212 24-179 limits assumed): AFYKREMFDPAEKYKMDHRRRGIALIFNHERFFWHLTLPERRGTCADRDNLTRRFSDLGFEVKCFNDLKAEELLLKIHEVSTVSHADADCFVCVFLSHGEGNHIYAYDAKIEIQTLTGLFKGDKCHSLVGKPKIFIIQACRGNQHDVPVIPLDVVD
T2 sequence (P55212 194-293 limits assumed): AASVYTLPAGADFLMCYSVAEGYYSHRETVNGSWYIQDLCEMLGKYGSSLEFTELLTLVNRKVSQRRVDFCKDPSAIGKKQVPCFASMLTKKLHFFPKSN

RCasp6 [2] = target: T2, RCasp6; experiment: inhibitor kinetic studies (Michaelis-Menten / Lineweaver-Burk) on RCasp6; type: biochemical; conditions: for Ki: competitive inhibition model, nonlinear regression, Ac-VEID-AFC substrate, 10 nM RCasp6
Casp6 [3] = target: T3, Casp6 (Homo sapiens, UniProt P55212); experiment: Casp6 activity in Casp6p20p10-transfected HCT116 cells; type: cell-based; set-up: for active Casp6p20 subunit (p20), full length Casp6 lacking its pro-domain; Casp6p20p10 (p20p10); expressed in transfected cells; host or cells: HCT116 human colon carcinoma cells; conditions: transfected HCT116, 2 hrs; 100 μM and 1 mM methylene blue, 50 μM azure A, 10 μM and 100 μM azure B
T3 sequence (P55212 24-179 limits assumed): T2 sequence (P55212 24-179 limits assumed)
T3 sequence (P55212 194-293 limits assumed): T2 sequence (P55212 194-293 limits assumed)
Protocol: (§1) Activity assays for RCasp1 (Biovision, Millpitas, CA, USA) and RCasp3 (Enzo Lifesciences) used Z-Tyr-Val-Ala-Asp-7-Amino-4-trifluoromethylcoumarin (z-YVAD-AFC: Enzo LifeSciences,), and Ac-Asp-Glu-Val-Asp-7-Amino-4-trifluoromethylcouramin (Ac-DEVD-AFC: Enzo LifeSciences), respectively. To confirm that these substrates report caspase activity and not proteasomal caspase-like enzyme activity, 1 μM pan-caspase inhibitor, Q-VD-OPh (Sigma-Aldrich) or 0.1 μM proteasome inhibitor, bortezomib (Calbiochem, MA, USA) were tested on 20 nM RCasp3 or 40–60 μg of mouse liver protein extracts.
Human colon carcinoma (HCT116) cells, cultured as recommended (ATCC: Manassas, VA, USA), were transfected with 1 μg pCep4βCasp6p20p10 and 8 μg polyethyleneimine (Polysciences Inc., Warrington, PA, USA), and grown 24 hrs before treatment with PBS and phenothiazines for 2 hours. Human primary neurons were cultured from fetal brain cortical areas obtained under ethical guidelines and approved by the McGill University’s institutional review board as previously described. Human primary neurons plated in poly-L-lysine -coated 6-well plates at a density of 3 × 10^6 cells/mL were serum-deprived for 2 hours in the presence of phenothiazines or an equivalent volume of PBS. Proteins were harvested in cell lysis buffer (CLB; 50mM HEPES, 0.1% CHAPS, 0.1mM EDTA).
(§2) The 10630 (1:10,000) and GN60622 (1:10,000) neoepitope antibodies against the p20 subunit of active Casp6[16] and Tub∆Casp6[23], respectively, were generated in our laboratory. The β-actin clone AC-15 (1:5000, Sigma-Aldrich), Casp6 p10 clone B93-4 (1:250, BD Canada, Mississauga, ON, CA), Casp3, and full-length α-tubulin (1:1000, Cell Signaling Technology Inc., Danvers, MA, USA) antibodies were diluted in 5% non-fat dry milk in Tris-buffered saline containing 0.1% Tween-20 (Sigma-Aldrich). […] Secondary anti-mouse conjugated to alkaline phosphatase (Jackson Immunoresearch Laboratories Inc., West Grove, PA) was developed with nitro-blue tetrazolium (ThermoSci) and 5-bromo-4-chloro-3′-indolyphosphate (ThermoSci).

human primary neurons = experiment: cell viability (microscopy) in human primary neurons; type: cell-based; conditions: phase contrast microscopy, 2 hours
Protocol: (§3) HCT116 cells, plated at a density of 1 × 10^5 cells/well and human neurons, plated at a density of 6 × 10^6 cells/well on poly-L-lysine were treated with PBS or phenothiazines for 2 hours. The media was replaced before acquiring images with the Nikon Eclipse Ti microscope and the NIS-Elements (Version 3.10) software. MTT assays: Cells were plated in 96-well plates at 1 × 10^4 or 1 × 10^5 cells per well for 24 hours before treatments with phenothiazines or PBS. After 2 hours, fresh media containing […] MTT (3-(4,5-dimethylthiazol-2-yl)-2,5-diphenyltetrazolium bromide) (Sigma-Aldrich) was added and the cells were incubated for 4 hours at 37 °C in 5% CO2. The media was removed, formazan crystals were dissolved in DMSO, and the absorbance was measured at 560 nm and 670 nm using the BioTek Synergy H4 plate reader.

RCasp1 = target: T4, RCasp1 (Homo sapiens, UniProt P29466); experiment: in vitro fluorogenic Casp1 activity assay (z-YVAD-AFC); type: biochemical; conditions: Fig. 1g
T4 construct: purchased Biovision
T4 sequence (P29466 120-404): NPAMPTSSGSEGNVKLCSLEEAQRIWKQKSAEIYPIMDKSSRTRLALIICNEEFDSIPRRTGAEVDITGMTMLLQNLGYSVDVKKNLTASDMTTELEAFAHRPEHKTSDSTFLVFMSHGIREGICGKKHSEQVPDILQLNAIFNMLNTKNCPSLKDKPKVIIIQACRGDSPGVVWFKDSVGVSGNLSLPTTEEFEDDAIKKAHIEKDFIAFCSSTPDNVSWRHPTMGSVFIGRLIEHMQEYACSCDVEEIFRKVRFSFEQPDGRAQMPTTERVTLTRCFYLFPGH
Protocol: as §1

HCT116 cells = experiment: cell viability (microscopy and MTT) in HCT116 cells; type: cell-based, human; conditions: 2 hours; for concentration at which cells retained morphology and confluence comparable to PBS-treated controls: HCT116, phase contrast microscopy
Protocol: as §3

RCasp6 [4] = target: T2, RCasp6; experiment: in vitro tubulin cleavage assay with RCasp6; type: biochemical; conditions: 20 nM RCasp6, 10 μM DTT, 10 hours, western blot densitometry; read-out: IC50, cleavage of tubulin by RCasp6 (Tub∆Casp6 relative to total tubulin)
Protocol: Phenothiazines were mixed with 20 nM RCasp6 or RCasp3, 10 μM DTT, and 7.5 nM BSA in SB and 36 μg HCT116 protein extracts added before incubation at 37 °C for 10 hours, western blotting, and densitometry for tubulin-cleaved by Casp6 (Tub∆Casp6) and total tubulin as described in the western blot section. The IC50 was determined by a non-linear regression fit for log inhibitor vs caspase activity with a Hill slope of −1 using GraphPad Prism 5.0.
as §2

Casp6 [5] = target: T3, Casp6; experiment: Casp6 activity in serum-deprived human primary neuron cultures; type: cell-based; set-up: endogenous in cells; host or cells: human primary neurons from fetal brain cortex; conditions: serum-deprived neurons, 2 hrs, 100 μM methylene blue, 50 μM azure A, 10 μM azure B
[6] = target: T5, catalytic Cys163 of Casp6 (Homo sapiens, UniProt P55212); experiment: LC/MS/MS analysis of Casp6 Cys163 oxidation; conditions: RCasp6 treated with 2 mM compound, 45 min, 37 °C
T5 construct: The zymogen is cleaved at three distinct sites to remove the prodomain and linker regions in order to obtain an active enzyme; His tag (C); made in house; host or cells: E. coli BL21 (DE3)pLysS
T5 sequence (P55212 24-179 limits assumed): T2 sequence (P55212 24-179 limits assumed)
T5 sequence (P55212 194-293 limits assumed): T2 sequence (P55212 194-293 limits assumed)

Compound | IC50 (RCasp3) | concentration at which reduction in Casp6 activity was observed (RCasp6 [1]) | Ki (RCasp6 [2]) | Casp6 activity on the Ac-VEID-AFC peptide substrate (Casp6 [3]) | concentration above which cell body size and axonal fragmentation increased (human primary neurons) | inhibition of RCasp1 in the fluorogenic assay (RCasp1) | concentration that decreased MTT absorbance to almost nothing (toxicity) (HCT116 cells; HCT116, MTT assay) | concentration up to which MTT absorbance was similar to PBS-treated cells (HCT116 cells; HCT116, MTT assay) | concentration at which cells retained morphology and confluence comparable to PBS-treated controls (HCT116 cells) | IC50 (RCasp6 [4]) | inhibition of Casp6 activity (RCasp6 [1]) | mode of inhibition (RCasp6 [2]; Lineweaver Burk plot, Km increasing, Vmax the same) | VEIDase activity (Casp6 [5]) | Tub∆Casp6/Tub levels (Casp6 [5]; vs PBS-treated serum-deprived neurons) | concentration up to which well tolerated (HCT116 cells; HCT116, MTT assay) | sequenced peptides containing oxidized Cys163 [6]
CN(C)c1ccc2nc3ccc(=[N+](C)C)cc-3sc2c1 [methylene blue, [7-(dimethylamino)phenothiazin-3-ylidene]-dimethylazanium;chloride] | 14.2 µM | 100 pM | 50.5 µM | significantly inhibited | above 100 μM | dose dependent inhibition | 10000 µM | up to 1 mM | 100 μM | 10.6 µM |  |  |  |  |  | 
CNc1ccc2nc3ccc(N(C)C)cc3[s+]c2c1 [azure B, dimethyl-[7-(methylamino)phenothiazin-3-ylidene]azanium;chloride] |  | 100 pM | 7.89 µM | significantly inhibited | > 10 µM |  |  |  | 100 μM | 34.4 µM | inhibited Casp6 activity in a dose dependent manner | competitive | significantly inhibited | significantly decreased | up to 100 μM | 7.7%
